Experimental data reported in article PMC6178217 (JACC. Cardiovascular imaging, 2018).
Where two headings read alike, the source gives them in different places.

What was measured:
CB1-R [1] = biological target: CB1-R (Mus musculus, UniProt P47746); assay: Rimonabant blocking study of [^11C]-OMAR uptake in obese mice; type: in vivo
[2] = median (range)
[3] = as reported in brain studies; cited from earlier work
CB1-R [4] = settings: cited from earlier work
myocardial CB1-R [5] = biological target: myocardial CB1-R (Mus musculus, UniProt P47746); assay: [^11C]-OMAR dynamic micro-PET/CT, myocardial OMAR retention in mice; type: in vivo; settings: for myocardial OMAR retention: median [range]
myocardial CB1-R (Mus musculus, UniProt P47746), sequence (P47746 whole entry): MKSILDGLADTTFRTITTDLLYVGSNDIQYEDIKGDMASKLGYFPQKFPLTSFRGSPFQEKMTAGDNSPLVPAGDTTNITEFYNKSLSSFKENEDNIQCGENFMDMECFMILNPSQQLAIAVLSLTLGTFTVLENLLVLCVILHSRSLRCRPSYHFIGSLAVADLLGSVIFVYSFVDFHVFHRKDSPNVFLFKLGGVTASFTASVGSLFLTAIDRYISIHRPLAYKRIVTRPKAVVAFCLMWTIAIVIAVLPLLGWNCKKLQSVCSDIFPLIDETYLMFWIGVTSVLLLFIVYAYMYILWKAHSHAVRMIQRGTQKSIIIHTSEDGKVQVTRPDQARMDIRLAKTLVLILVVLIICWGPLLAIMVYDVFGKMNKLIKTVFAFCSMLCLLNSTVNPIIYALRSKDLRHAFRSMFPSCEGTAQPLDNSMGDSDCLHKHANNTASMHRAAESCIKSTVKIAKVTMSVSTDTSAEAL

myocardial CB1-R [6] = biological target: myocardial CB1-R (Homo sapiens, UniProt P21554); assay: [^11C]-OMAR PET/CT, myocardial retention index of OMAR in humans; type: in vivo; settings: median (range)
myocardial CB1-R (Homo sapiens, UniProt P21554), sequence (P21554 whole entry): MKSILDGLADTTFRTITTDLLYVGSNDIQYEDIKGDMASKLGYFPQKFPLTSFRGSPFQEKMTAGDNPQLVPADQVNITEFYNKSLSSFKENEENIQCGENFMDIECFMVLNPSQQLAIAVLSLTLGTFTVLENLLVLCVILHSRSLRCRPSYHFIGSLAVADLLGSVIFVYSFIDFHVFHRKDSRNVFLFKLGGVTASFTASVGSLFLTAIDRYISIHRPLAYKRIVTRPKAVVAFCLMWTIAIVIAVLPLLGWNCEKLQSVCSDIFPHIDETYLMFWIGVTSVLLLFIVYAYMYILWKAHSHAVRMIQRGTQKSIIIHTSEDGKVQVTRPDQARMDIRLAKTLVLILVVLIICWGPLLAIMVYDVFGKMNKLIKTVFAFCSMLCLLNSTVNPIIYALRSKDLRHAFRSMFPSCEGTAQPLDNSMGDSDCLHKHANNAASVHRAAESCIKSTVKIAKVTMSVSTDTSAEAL

[7] = obese mice, intravenous, median (range)

CB1-R (Mus musculus, UniProt P47746), sequence (P47746 whole entry): as the sequence (P47746 whole entry) above

## [11CH3]Oc1ccc(-c2c(C#N)c(C(=O)NN3CCCCC3)nn2-c2ccc(Cl)cc2Cl)cc1 [[^11C]-OMAR]
CB1-R [1]; 5 mg/kg dose of rimonabant, heart
  [^11C]-OMAR uptake that could not be blocked: about 42%
CB1-R [1]; myocardial blocking study
  baseline-to-block ratio of myocardial [^11C]-OMAR uptake: about 2.4
  binding potential: > 1
[2]; AOB
  DBP after [^11C]-OMAR injection: 71 (56–78) mm Hg
  HR after [^11C]-OMAR injection: 72 (65–84) beats/min
  MAP after [^11C]-OMAR injection: 93 (76–96) mm Hg
  RPP after [^11C]-OMAR injection: 9,588 (7,325–10,960) mm Hg/min
  SBP after [^11C]-OMAR injection: 133 (116–140) mm Hg
[2]; CON
  DBP after [^11C]-OMAR injection: 62 (60–68) mm Hg
  HR after [^11C]-OMAR injection: 70 (61–77) beats/min
  MAP after [^11C]-OMAR injection: 81 (75–97) mm Hg
  SBP after [^11C]-OMAR injection: 120 (118–124) mm Hg
[3]
  radioactivity related to unchanged [^11C]-OMAR: at least 94%
CB1-R [4]; brain
  blocking of [^11C]-OMAR uptake reported for brain studies: about 75%
CB1-R [4]; previous blocking studies in the brain
  binding potential in the brain: about 2
Myocardial CB1-R [5]; heart, ob/ob vs lean control mice, micro-PET/CT
  fold higher [^11C]-OMAR retention in obese versus lean mice: 8 fold
Myocardial CB1-R [5]; normal-weight mice
  myocardial OMAR retention: 0.13 %/min
Myocardial CB1-R [5]; obese mice
  binding potential of [^11C]-OMAR to myocardial CB1-R: 6.4
  myocardial OMAR retention: 8.29 %/min
Myocardial CB1-R [6]; AOB (advanced obesity)
  OMAR retention (absolute left ventricular): 5.68 (1.88–6.89) %/min
Myocardial CB1-R [6]; CON (normal-weight control subjects)
  OMAR retention (absolute left ventricular): 0.47 (0.13–1.31) %/min
[7]; 5 min
  [^11C]-OMAR uptake, Blood: 1.19 (1.10–1.33) %ID/g Tissue
  [^11C]-OMAR uptake, Cerebellum: 2.43 (1.72–2.74) %ID/g Tissue
  [^11C]-OMAR uptake, Heart: 4.63 (4.00–5.23) %ID/g Tissue
[7]; 10 min
  [^11C]-OMAR uptake, Blood: 0.99 (0.91–1.19) %ID/g Tissue
  [^11C]-OMAR uptake, Cerebellum: 2.32 (2.11–2.50) %ID/g Tissue
  [^11C]-OMAR uptake, Thalamus: 1.62 (1.59–1.72) %ID/g Tissue
[7]; 15 min
  [^11C]-OMAR uptake, Blood: 0.99 (0.91–1.19) %ID/g Tissue
  [^11C]-OMAR uptake, Cerebellum: 2.53 (2.43–2.55) %ID/g Tissue
  [^11C]-OMAR uptake, Thalamus: 1.69 (1.59–1.72) %ID/g Tissue
[7]; 30 min
  [^11C]-OMAR uptake, Blood: 0.55 (0.39–0.65) %ID/g Tissue
  [^11C]-OMAR uptake, Cerebellum: 2.11 (1.25–2.38) %ID/g Tissue
  [^11C]-OMAR uptake, Heart: 2.14 (2.09–2.17) %ID/g Tissue
  [^11C]-OMAR uptake, Thalamus: 1.21 (1.18–1.21) %ID/g Tissue
[7]; 60 min
  [^11C]-OMAR uptake, Blood: 0.46 (0.46–0.47) %ID/g Tissue
  [^11C]-OMAR uptake, Cerebellum: 1.37 (1.25–1.51) %ID/g Tissue
  [^11C]-OMAR uptake, Heart: 1.55 (1.48–1.61) %ID/g Tissue
  [^11C]-OMAR uptake, Thalamus: 0.73 (0.58–0.77) %ID/g Tissue
[7]; 90 min
  [^11C]-OMAR uptake, Blood: 0.55 (0.51–0.68) %ID/g Tissue
  [^11C]-OMAR uptake, Cerebellum: 1.11 (1.05–2.00) %ID/g Tissue
  [^11C]-OMAR uptake, Heart: 1.40 (1.40–1.79) %ID/g Tissue
  [^11C]-OMAR uptake, Thalamus: 0.55 (0.38–0.98) %ID/g Tissue
